From US4216221A, “1,3-Disubstituted (2-thio)ureas” (U C B, Societe Anonyme, priority 1977, dated 1980)
Where two headings read alike, the source gives them in different places.

Experiments:
[1] = Protection against aggressions of the hypoxic type (mortality induced by oxydipentonium chloride); assay type: in vivo, mice; details: Mus musculus, ip, 1 h, mice, intraperitoneal, one hour before the curarizer, read-out: Proportion of survivors, Animals treated; for responders at 100 µM, 100 µmol/kg: 0.1 mM/kg, control animals 3/20 (1), 1/10 (2, 18, 26), 0/10 (14, 32); for responders at 100 µM, 100 µmol/kg / responders at 320 µM, 320 µmol/kg: 2/10 (28); for responders at 320 µM, 320 µmol/kg: 0.32 mM/kg, control animals 1/10 (18), 0/10 (32, piracetam)
Protocol: Protection against aggressions of the hypoxic type was shown by a reduction of mortality induced by a curarizer, the action time of which is short, namely oxydipentonium chloride (Brevatonal). At the doses used, this curarizer brings about respiratory depression which, in turn, gives rise to a hypoxi-hypercapnic syndrome.
A compound capable of protecting the brain during this short period of hypoxia ensures survival. The compounds are administered to groups of 10 mice one hour before the injection of the curarizer. At the same time, a control group of 10 mice received physiological salt solution before the curarizer. This test has also been developed in our laboratories (see S. LEVIS et al., Arch.Int.Pharmacodyn.Therap.93, (1953,no. 1), 46-54).

[2] = Toxicity by intraperitoneal administration (Irwin's test); assay type: in vivo; details: for Dose mg/kg (dose which brings about the death of one animal out of eight in Irwin's test): mouse
Excerpt: The compounds tested have a remarkably low toxicity.
*Dose which brings about the death of one animal out of eight in Irwin's
test (S. IRWIN, Gordon Research Conference on Medicinal Chemistry, Colby
Junior College, New London, 1959).

[3] = active avoidance test (memory retention; paw withdrawal reaction threshold); assay type: in vivo, rat; details: sc, rat, subcutaneous, tested 24 hours later
Excerpt: The pressure at which the withdrawal reaction takes place is called the reaction threshold. This threshold is expressed by the figure read on a scale graduated in cm of the apparatus used (Analgesy-meter Ugo Basile, Milan) and thus corresponds to the minimum pressure which brings about withdrawal when applied to the animal's paw.

[4] = read-out: Active dose mM/kg (minimum dose lowering the stimulus below 11 graduations; mM = millimole)
[5] = read-out: Active dose mg/kg (minimum dose lowering the stimulus below 11 graduations)

Structure (SMILES) | responders at 100 µM, 100 µmol/kg [1] [%] | Dose mM/kg - mouse (dose which brings about the death of one animal out of eight in Irwin's test) [2] [mM/kg] | Dose mg/kg (dose which brings about the death of one animal out of eight in Irwin's test) [2] [mg/kg] | minimal effective dose [3, 4] [µmol/kg] | minimal effective dose [3, 5] [mg/kg] | responders at 32 µM, 32 µmol/kg ([1]; 0.032 mM/kg, control animals 3/20 (compound 1), 1/10 (compound 11)) [%] | responders at 320 µM, 320 µmol/kg [1] [%]
O=C(NCCCN1CCCC1=O)NCN1CCCC1=O [Compound No. 2, 1-[(2-oxo-pyrrolidino)methyl]-3-[3-(2-oxo-pyrrolidino)propyl]-urea] | 60 | > 3 | > 846 |  |  |  | 
O=C(NCN1CCCCC1=O)NCN1CCCCC1=O [Compound No. 3, 1,3-bis[(2-oxo-piperidino)methyl]-urea] |  |  |  | 0.2 | 0.056 |  | 
O=C(NCN1CCCCCCC1=O)NCN1CCCCCCC1=O [Compound No. 5, 1,3bis[(hexahydro-2-oxo-1(2H)-azocinyl)methyl]-urea] |  | 3 | 1004 | 1 | 0.338 |  | 
O=C(NCN1CCCCCCCC1=O)NCN1CCCCCCCC1=O [Compound No. 6, 1,3-bis[(octahydro-2-oxo-1H-azonin-1-yl)methyl]-urea] |  | > 3 | 1099.5 | 5 | 1.83 |  | 
O=C(NCN1C(=O)CCC1c1ccccc1)NCN1C(=O)CCC1c1ccccc1 (centres unmarked) [Compound No. 9, 1,3-bis[(2-oxo-5-phenyl-pyrrolidino)methyl]-urea] |  | 1 | 406 |  |  |  | 
CCC(NC(=O)NC(CC)N1CCCC1=O)N1CCCC1=O (centres unmarked) [Compound No. 10, 1,3-bis[1-(2-oxo-pyrrolidino)propyl]-urea] |  | > 3 | > 930 |  |  |  | 
CC(NC(=O)NC(C)N1CCCC1=O)N1CCCC1=O (centres unmarked) [Compound No. 11, 1,3-bis[1-(2-oxo-pyrrolidino)ethyl]-urea] |  | > 3 | > 846 | 0.005 | 0.0014 | 70 | 
O=C(NCN1CCCCCCCC1=O)NCN1CCCC1=O [Compound No. 29, 1-[(octahydro-2-oxo-1H-azonin-1-yl)methyl]-3-[(2-oxo-pyrrolidino)methyl]-urea] |  | 2 | 620 |  |  |  | 
O=C(NCN1CC(c2ccccc2)CC1=O)NCN1CC(c2ccccc2)CC1=O (centres unmarked) [compound 12, 1,3-bis[(2-oxo-4-phenyl-pyrrolidino)methyl]-urea] |  | > 3 | 1215 |  |  |  | 
CCC1(c2ccccc2)CCN(CNC(=O)NCN2CCC(CC)(c3ccccc3)C2=O)C1=O (centres unmarked) [compound 13, 1,3-bis[(3-ethyl-2-oxo-3-phenyl-pyrrolidino)methyl]-urea] |  | > 3 | 1387.5 |  |  |  | 
C=CCC1(c2ccccc2)CCN(CNC(=O)NCN2CCC(CC=C)(c3ccccc3)C2=O)C1=O (centres unmarked) [compound 15, 1,3-bis[(3-allyl-2-oxo-3-phenyl-pyrrolidino)methyl]-urea] |  | > 3 | 1459.5 | 1 | 0.486 |  | 
O=C(NCN1CC(c2ccc(Cl)cc2)CCC1=O)NCN1CC(c2ccc(Cl)cc2)CCC1=O (centres unmarked) [compound 16, 1,3-bis[(5-p-chlorophenyl-2-oxo-piperidino)methyl]-urea] |  | > 3 | 1510.2 |  |  |  | 
CC1CC2(CCCCC2)C(=O)N1CNC(=O)NCN1C(=O)C2(CCCCC2)CC1C (centres unmarked) [compound 17, 1,3-bis[(3-methyl-1-oxo-2-azaspiro[4.5]dec-2-yl)methyl]-urea] |  | 3 | 1255.8 |  |  |  | 
CC1CC(C)(C)N(CNC(=O)NCN2C(=O)C(C)CC2(C)C)C1=O (centres unmarked) [compound 18, 1,3-bis[(3,5,5-trimethyl-2-oxo-pyrrolidino)methyl]-urea] | 20 | 2 | 676.8 |  |  |  | 60
O=C(NC(c1ccccc1)N1CCCC1=O)NC(c1ccccc1)N1CCCC1=O (stereo not drawn) [compound 19, 1,3-bis[alpha-(2-oxo-pyrrolidino)-benzyl]-urea] |  | > 3 | > 1219 |  |  |  | 
CC(CNC(=O)NCC(C)N1CCCC1=O)N1CCCC1=O (centres unmarked) [compound 21, 1,3-bis[2-(2-oxo-pyrrolidino)propyl]-urea] |  | > 3 | > 930 | 0.01 | 0.0031 |  | 
O=C1CCCN1CNC(=S)NCN1CCCC1=O [compound 25, 1,3-bis[(2-oxo-pyrrolidino)methyl]-2-thiourea] |  | > 3 | > 804 | 1 | 0.268 |  | 
CCCCC1CCN(CNC(=S)NCN2CCC(CCCC)C2=O)C1=O (centres unmarked) [compound 26, 1,3-bis[(3-n-butyl-2-oxo-pyrrolidino)methyl]-2-thiourea] | 70 | > 2 | > 765.2 |  |  |  | 
CCCCC1CCN(CNC(=S)NCN2CCC(CCCC)C2=O)C1=O (centres unmarked) [compound 27, 1,3-bis[(3-n-butyl-2-oxo-pyrrolidino)methyl]-2-thiourea] |  |  |  | 0.01 | 0.0038 |  | 
O=C1CCCCCN1CNC(=S)NCN1CCCC1=O [compound 28, 1-[(hexahydro-2-oxo-1H-azepin-1-yl)methyl]-3-[(2-oxo-pyrrolidino)methyl]-2-thiourea] | 20 | 3 | 894 |  |  |  | 70
CCCCC1CCN(CNC(=O)NCN2CCC(CCCC)C2=O)C1=O (centres unmarked) [compound 30, 1,3-bis[(3-n-butyl-2-oxo-pyrrolidino)methyl]-urea] |  | > 3 | > 10009.5 |  |  |  | 
CC1CC2(CCCCC2)C(=O)N1CNC(=O)NCN1CCCC1=O (centres unmarked) [compound 31, 1-[(3-methyl-1-oxo-azaspiro[4.5]dec-2-yl)methyl]-3-[(2-oxo-pyrrolidino)-methyl]-urea] |  | 2 | 672.8 |  |  |  | 
O=C(NCN1CCCCCC1=O)NCN1CCCC1=O [compound 32, 1-[(hexahydro-2-oxo-1H-azepin-1-yl)methyl]-3-[(2-oxo-pyrrolidino)methyl]-urea] | 30 | > 3 | > 846 |  |  |  | 60
O=C(NCN1CCCCCCC1=O)NCN1CCCC1=O [compound 33, 1-[(hexahydro-2-oxo-1(2H)-azocinyl)methyl]-3-[(2-oxo-pyrrolidino)methyl]-urea] |  | > 3 | > 888 | 5 | 1.48 |  | 
CC1(C)CCC(=O)N1CNC(=O)NCN1C(=O)CCC1(C)C [compound 35, 1,3bis[(5,5-dimethyl-2-oxo-pyrrolidine)methyl]-urea] |  | > 3 | > 930 | 0.02 | 0.0062 |  | 
O=C1CCCCCN1CNC(=S)NCN1CCCCCC1=O [compound 36, 1,3-bis[(hexahydro-2-oxo-1H-azepin-1-yl)methyl]-2-thiourea] |  |  |  | 0.2 | 0.065 |  | 
